Test results reported in patent publication US10611750B2, “Tetrahydroquinoline compositions as bet bromodomain inhibitors” (FORMA Therapeutics, Inc., priority 2013, dated 2020).

Assays:
[1] = target: T1, BRD4 Bromodomain 1 (BRD4 BD1) (Homo sapiens, UniProt O60885); experiment: AlphaScreen binding assay, BRD4 BD1; details: His-tagged BRD4 BD1 50 nM, biotinylated H4 (1-21) K5/8/12/16 tetra-acetylated peptide 50 nM, compounds listed under IC50 range headings
T1 construct: 44-168 and BRD4 BD2
Outline: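 An AlphaScreen competition format was used with His-BRD4 BD1 or BD2 and biotin-H4 K5/8/12/16-acetyl peptide, each at matched final levels of 50 nM (BD1) or 100 nM (BD2). Incubation in HEPES/NaCl buffer with 0.1% BSA and 0.01% Triton X-100 ran ≥1 h before IC50 determination.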

[2] = target: T2, BRD4 Bromodomain 2 (BRD4 BD2) (Homo sapiens, UniProt O60885); experiment: AlphaScreen binding assay, BRD4 BD2; details: His-tagged BRD4 BD2 100 nM, biotinylated H4 (1-21) K5/8/12/16 tetra-acetylated peptide 100 nM, compounds listed under IC50 range headings
T2 construct: 333-460 were cloned, expressed, and purified to homogeneity
Experimental: The binding of Example compounds to BRD4 Bromodomain 1 and BRD4 Bromodomain 2 was assessed using 384-well AlphaScreen assay technology. His-epitope tagged BRD4 BD144-168 and BRD4 BD2333-460 were cloned, expressed, and purified to homogeneity. BRD4 BD1 and BRD4 BD2 binding and inhibition was assessed by monitoring the engagement of biotinylated Histone H4 (1-21) K5/8/12/16 tetra-acetylated peptide with the targets using the AlphaScreen technology (PerkinElmer). Specifically, in a 384-well black or white flat bottom plate, BRD4 BD1 (50 nM final) or BRD4 BD2 (100 nM final) was combined with peptide (50 nM final for BD1 or 100 nM final for BD2) in 50 mM HEPES (pH 7.3), 100 mM NaCl, 0.1% (w/v) BSA, and 0.01% (w/v) Triton X-100 either in the presence of DMSO (final 1.25% DMSO) or compound dilution series in DMSO. Alpha streptavidin donor beads and Nickel-chelate acceptor beads were added to a final concentration of 10 μg/ml each. After a minimum of 1 hour equilibration, plates were read on a BMG PHERAstar FS multi-label reader (BMG LabTech). The half maximal inhibitory concentration (IC50) values were calculated using IDBS Activity Base software with a four parameter logistic curve fit by the equation y=A+((B−A)/(1+((C/x)^D))), wherein A denotes the bottom plateau of the curve, B denotes the top plateau of the curve, C denotes the x value at the middle of the curve, D denotes the slope factor, x denotes the original known x values, and y denotes the original known y values. Data was fitted using the Levenburg Marquardt algorithm.

IC50 [1] | IC50 [2] | Compound
≥ 10000 nM | ≥ 500 nM | COC(=O)N1c2ccc(-c3cnn(C4CC4)c3)c(OCC(C)(F)F)c2CC[C@@H]1C [I-12, (S)-methyl 6-(1-cyclopropyl-1H-pyrazol-4-yl)-5-(2,2-difluoropropoxy)-2-methyl-3,4-dihydroquinoline-1(2H)-carboxylate]
1000 to 10000 nM | 50 to 500 nM | CCCOc1c(-c2ccc(N(C)S(C)(=O)=O)cc2)ccc2c1CC[C@H](C)N2C(C)=O [I-502]
1000 to 10000 nM | 50 to 500 nM | COC(=O)N1c2ccc(-c3cnn(CCS(C)(=O)=O)c3)c(OCC(=O)N3CCCC3)c2CC[C@@H]1C [I-463]
1000 to 10000 nM | 50 to 500 nM | COC(=O)N1c2ccc(-c3cnn(C4CC4)c3)c(OCC(F)F)c2CC[C@@H]1C [I-10, (S)-methyl 6-(1-cyclopropyl-1H-pyrazol-4-yl)-5-(2,2-difluoroethoxy)-2-methyl-3,4-dihydroquinoline-1(2H)-carboxylate]
1000 to 10000 nM | 50 to 500 nM | CC(=O)N1c2ccc(-c3cnn(C4CC4)c3)c(Oc3nc(C)cc(C)n3)c2CC[C@@H]1C [I-90, (S)-1-(6-(1-cyclopropyl-1H-pyrazol-4-yl)-5-(4,6-dimethylpyrimidin-2-yloxy)-2-methyl-3,4-dihydroquinolin-1 (2H)-yl)ethanone]
≥ 10000 nM | ≥ 500 nM | CCCOc1cccc2c1CC[C@H](C)N2C(C)=O [I-605]
1000 to 10000 nM | 50 to 500 nM | COC(=O)N1c2ccc(-c3cnn(C4CCNCC4)c3)c(OC[C@H]3CCNC3)c2CC[C@@H]1C [I-477]
1000 to 10000 nM | 50 to 500 nM | CC(=O)N1c2ccc(-c3cnn(CC(C)(C)O)c3)c(OCC(=O)N(C)C)c2CC[C@@H]1C [I-418]
1000 to 10000 nM | 50 to 500 nM | COC(=O)N1c2ccc(-c3cnn(C4CCNCC4)c3)c(OCCN(C)S(C)(=O)=O)c2CC[C@@H]1C [I-474]
1000 to 10000 nM | 50 to 500 nM | CC(=O)N1c2ccc(-c3cnn(CCS(C)(=O)=O)c3)c(OCC(=O)N(C)C)c2CC[C@@H]1C [I-417]
1000 to 10000 nM | 50 to 500 nM | COC(=O)N1c2ccc(-c3cnn(CC(C)(C)O)c3)c(OCC3CCCC3)c2CC[C@@H]1C [I-460]
1000 to 10000 nM | 50 to 500 nM | CC(=O)N1c2ccc(-c3cnn(C4COC4)c3)c(OC[C@H]3CCNC3)c2CC[C@@H]1C [I-601]
1000 to 10000 nM | 50 to 500 nM | CC(=O)N1c2ccc(-c3cnn(C4CC4)c3)c(OCC(C)(F)F)c2CC[C@@H]1C [I-37, (S)-1-(6-(1-cyclopropyl-1H-pyrazol-4-yl)-5-(2,2-difluoropropoxy)-2-methyl-3,4-dihydroquinolin-1(2H)-yl)ethanone]
1000 to 10000 nM | 50 to 500 nM | CCCOc1c(-c2ccc(N3CCCS3(=O)=O)cc2)ccc2c1CC[C@H](C)N2C(C)=O [I-498]
≥ 10000 nM | 50 to 500 nM | CCNC(=O)COc1c(-c2cnn(C3CC3)c2)ccc2c1CC[C@H](C)N2C(=O)OC [I-21, (S)-methyl 6-(1-cyclopropyl-1H-pyrazol-4-yl)-5-(2-(ethylamino)-2-oxoethoxy)-2-methyl-3,4-dihydroquinoline-1(2H)-carboxylate]
1000 to 10000 nM | 50 to 500 nM | CCCOc1c(-c2ccc(C(=O)N3CCOCC3)cc2)ccc2c1CC[C@H](C)N2C(C)=O [I-496]
1000 to 10000 nM | 50 to 500 nM | CC(=O)N1c2ccc(-c3cnn(C4CC4)c3)c(OCc3cncs3)c2CC[C@@H]1C [I-406]
1000 to 10000 nM | ≥ 500 nM | COC(=O)N1c2ccc(-c3cnn(C4CC4)c3)c(OC3CNC3)c2CC[C@@H]1C [I-59, (S)-methyl 5-(azetidin-3-yloxy)-6-(1-cyclopropyl-1H-pyrazol-4-yl)-2-methyl-3,4-dihydroquinoline-1(2H)-carboxylate]
1000 to 10000 nM | 50 to 500 nM | COC(=O)N1c2ccc(-c3cnn(CCS(C)(=O)=O)c3)c(OC[C@H]3CCNC3)c2CC[C@@H]1C [I-475]
1000 to 10000 nM | 50 to 500 nM | CC(=O)N1c2ccc(-c3cnn(C4CC4)c3)c(OCc3ccn(C)n3)c2CC[C@@H]1C [I-405]
1000 to 10000 nM | 50 to 500 nM | CC(=O)N1c2ccc(-c3cnn(C4COC4)c3)c(OCc3ccno3)c2CC[C@@H]1C [I-379]

IC50 [1] | IC50 [2] | Compound
1000 to 10000 nM | 50 to 500 nM | CCNC(=O)COc1c(-c2cnn(C3CC3)c2)ccc2c1CC[C@H](C)N2C(C)=O [I-4, (S)-2-(1-acetyl-6-(1-cyclopropyl-1H-pyrazol-4-yl)-2-methyl-1,2,3,4-tetrahydroquinolin-5-yloxy)-N-ethylacetamide]
1000 to 10000 nM | 50 to 500 nM | CCCOc1c(-c2ccc(NS(C)(=O)=O)cc2)ccc2c1CC[C@H](C)N2C(C)=O [I-494]
1000 to 10000 nM | 50 to 500 nM | COC(=O)N1c2ccc(-c3cnn(CCO)c3)c(OCC3CCOCC3)c2CC[C@@H]1C [I-450]
1000 to 10000 nM | 50 to 500 nM | COC(=O)N1c2ccc(-c3cnn(C4CC4)c3)c(OCC3(CO)COC3)c2CC[C@@H]1C [I-32, (S)-methyl 6-(1-cyclopropyl-1H-pyrazol-4-yl)-5-((3-(hydroxymethyl)oxetan-3-yl)methoxy)-2-methyl-3,4-dihydroquinoline-1(2H)-carboxylate]
1000 to 10000 nM | 50 to 500 nM | CC(=O)N1c2ccc(-c3cnn(CC(C)(C)O)c3)c(OC[C@H]3CCC(=O)N3)c2CC[C@@H]1C [I-433]
1000 to 10000 nM | 50 to 500 nM | COC(=O)N1c2ccc(-c3cnn(C4CCNCC4)c3)c(OCC3CCOCC3)c2CC[C@@H]1C [I-451]
≥ 10000 nM | ≥ 500 nM | CC(=O)N1c2ccc(-c3cccc(C(=O)N4CCOCC4)c3)c(OCC(=O)N(C)C)c2CC[C@@H]1C [I-489]
1000 to 10000 nM | 50 to 500 nM | COC(=O)N1c2ccc(-c3cnn(CC(C)(C)O)c3)c(OC[C@H]3CCC(=O)N3)c2CC[C@@H]1C [I-468]
≥ 10000 nM | 50 to 500 nM | CC(=O)N1c2cccc(Oc3ccccc3)c2CCC1C (racemic) [I-112, rac-1-(2-methyl-5-phenoxy-3,4-dihydroquinolin-1(2H)-yl)ethanone]
1000 to 10000 nM | 50 to 500 nM | CCCOc1c(-c2cccc(NS(C)(=O)=O)c2)ccc2c1CC[C@H](C)N2C(C)=O [I-490]
1000 to 10000 nM | < 50 nM | COC(=O)N1c2ccc(-c3cnn(C4CC4)c3)c(OCCN3CCCS3(=O)=O)c2CC[C@@H]1C [I-27, methyl (2S)-6-(1-cyclopropyl-1H-pyrazol-4-yl)-5-[2-(1,1-dioxo-1λ^6,2-thiazolidin-2-yl)ethoxy]-2-methyl-1,2,3,4-tetrahydroquinoline-1-carboxylate]
1000 to 10000 nM | 50 to 500 nM | CC(=O)N1c2ccc(-c3cnn(C4CC4)c3)c(Oc3ncccc3Cl)c2CC[C@@H]1C [I-87, (S)-1-(5-(3-chloropyridin-2-yloxy)-6-(1-cyclopropyl-1H-pyrazol-4-yl)-2-methyl-3,4-dihydroquinolin-1 (2H)-yl)ethanone]
1000 to 10000 nM | 50 to 500 nM | CC(=O)N1c2ccc(-c3ccc(N4CCCS4(=O)=O)cc3)c(OCC(=O)N(C)C)c2CC[C@@H]1C [I-499]
1000 to 10000 nM | 50 to 500 nM | CC(=O)N1c2ccc(-c3cnn(CC(C)(C)O)c3)c(OCC(C)C)c2CC[C@@H]1C [I-421]
1000 to 10000 nM | 50 to 500 nM | COc1c(-c2cnn(C3CC3)c2)ccc2c1CC[C@H](C)N2C(C)=O [I-404]
1000 to 10000 nM | 50 to 500 nM | CC(=O)N1c2ccc(-c3ccc(N(C)S(C)(=O)=O)cc3)c(OCC(=O)N(C)C)c2CC[C@@H]1C [I-503]
1000 to 10000 nM | ≥ 500 nM | CC(=O)N1c2ccc(-c3cnn(CC(C)(C)O)c3)c(OC[C@H]3CCNC3)c2CC[C@@H]1C [I-604]
1000 to 10000 nM | 50 to 500 nM | CC(=O)N1c2ccc(-c3ccc(C(=O)N4CCOCC4)cc3)c(OCC(=O)N(C)C)c2CC[C@@H]1C [I-497]
1000 to 10000 nM | 50 to 500 nM | COC(=O)N1c2ccc(-c3cnn(CC(C)(C)O)c3)c(OCC(=O)N(C)C)c2CC[C@@H]1C [I-453]
1000 to 10000 nM | 50 to 500 nM | CC(=O)N1c2ccc(-c3cnn(C4CC4)c3)c(OCc3ccno3)c2CC[C@@H]1C [I-381]

Compound | IC50 [1] | IC50 [2]
COC(=O)N1c2ccc(-c3cnn(C4CC4)c3)c(OC3CN(C(=O)OC(C)(C)C)C3)c2CC[C@@H]1C [I-58, (S)-methyl 5-(1-(tert-butoxycarbonyl)azetidin-3-yloxy)-6-(1-cyclopropyl-1H-pyrazol-4-yl)-2-methyl-3,4-dihydroquinoline-1(2H)-carboxylate] | ≥ 10000 nM | ≥ 500 nM
